Experimental data published in ChEMBL document CHEMBL5653631, “A Potent and Selective ULK1 Inhibitor Suppresses Autophagy and Sensitizes Cancer Cells to Nutrient Stress” (iScience, 2018).

Legend:
[1] = molecular target: T1, Discoidin domain-containing receptor 2 (Homo sapiens) (UniProt Q16832); test: Inhibition of human recombinant DDR2 at 500 nM in presence of ATP by radiometric assay relative to control
T1 sequence (whole entry): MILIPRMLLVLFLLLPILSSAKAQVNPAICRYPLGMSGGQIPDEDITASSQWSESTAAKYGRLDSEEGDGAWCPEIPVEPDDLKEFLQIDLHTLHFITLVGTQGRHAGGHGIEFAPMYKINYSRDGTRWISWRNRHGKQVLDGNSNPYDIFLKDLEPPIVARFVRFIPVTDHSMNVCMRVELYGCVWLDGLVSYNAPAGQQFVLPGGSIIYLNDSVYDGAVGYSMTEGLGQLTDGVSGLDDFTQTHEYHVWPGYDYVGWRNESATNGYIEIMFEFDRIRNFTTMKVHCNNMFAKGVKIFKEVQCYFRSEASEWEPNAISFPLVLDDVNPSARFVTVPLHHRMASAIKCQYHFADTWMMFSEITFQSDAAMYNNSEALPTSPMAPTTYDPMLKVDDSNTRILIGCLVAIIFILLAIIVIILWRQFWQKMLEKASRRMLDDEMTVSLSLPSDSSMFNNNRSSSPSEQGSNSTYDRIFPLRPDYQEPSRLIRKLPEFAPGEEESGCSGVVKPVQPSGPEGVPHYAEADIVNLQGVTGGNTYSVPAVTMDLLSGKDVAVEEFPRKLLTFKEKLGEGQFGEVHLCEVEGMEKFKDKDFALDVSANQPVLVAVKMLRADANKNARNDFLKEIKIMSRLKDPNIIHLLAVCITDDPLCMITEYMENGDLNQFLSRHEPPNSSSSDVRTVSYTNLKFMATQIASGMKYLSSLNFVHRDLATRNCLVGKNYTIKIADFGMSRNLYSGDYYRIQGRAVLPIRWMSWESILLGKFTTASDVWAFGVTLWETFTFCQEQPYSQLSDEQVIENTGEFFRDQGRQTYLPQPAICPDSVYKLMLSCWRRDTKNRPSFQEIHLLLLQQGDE

[2] = molecular target: T2, Tyrosine-protein kinase Mer (Homo sapiens) (UniProt Q12866); test: Inhibition of human recombinant MER at 500 nM in presence of ATP by radiometric assay relative to control
T2 sequence (whole entry): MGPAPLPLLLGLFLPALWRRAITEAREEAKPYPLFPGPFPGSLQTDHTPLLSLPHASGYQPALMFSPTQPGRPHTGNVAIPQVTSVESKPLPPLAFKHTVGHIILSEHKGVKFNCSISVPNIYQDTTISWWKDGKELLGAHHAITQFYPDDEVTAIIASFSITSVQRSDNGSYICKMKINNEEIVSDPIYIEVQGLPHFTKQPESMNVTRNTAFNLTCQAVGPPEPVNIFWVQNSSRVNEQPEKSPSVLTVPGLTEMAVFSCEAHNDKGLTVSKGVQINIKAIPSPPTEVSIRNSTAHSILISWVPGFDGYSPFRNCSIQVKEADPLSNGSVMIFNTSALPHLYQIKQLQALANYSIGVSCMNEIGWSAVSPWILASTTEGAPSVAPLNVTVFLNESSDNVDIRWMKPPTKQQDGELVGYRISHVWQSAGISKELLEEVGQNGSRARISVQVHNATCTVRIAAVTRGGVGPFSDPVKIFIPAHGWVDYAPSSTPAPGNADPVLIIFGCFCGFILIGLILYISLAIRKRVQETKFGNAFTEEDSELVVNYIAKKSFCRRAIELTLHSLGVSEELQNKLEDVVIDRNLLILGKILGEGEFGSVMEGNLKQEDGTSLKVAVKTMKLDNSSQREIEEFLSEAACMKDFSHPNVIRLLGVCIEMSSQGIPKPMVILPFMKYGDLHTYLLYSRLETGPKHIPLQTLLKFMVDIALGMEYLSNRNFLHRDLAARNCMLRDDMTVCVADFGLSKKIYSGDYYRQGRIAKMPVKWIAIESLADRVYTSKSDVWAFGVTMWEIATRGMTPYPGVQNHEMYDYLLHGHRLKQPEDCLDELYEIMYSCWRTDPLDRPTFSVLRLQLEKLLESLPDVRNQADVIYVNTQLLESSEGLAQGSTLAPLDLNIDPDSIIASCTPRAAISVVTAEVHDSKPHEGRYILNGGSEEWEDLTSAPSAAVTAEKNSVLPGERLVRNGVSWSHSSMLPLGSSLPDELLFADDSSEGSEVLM

[3] = molecular target: Maternal embryonic leucine zipper kinase (Homo sapiens) (UniProt Q14680); test: Inhibition of human recombinant MELK at 15 nM in presence of ATP by radiometric assay relative to control
Sequence of Maternal embryonic leucine zipper kinase (Homo sapiens) (Q14680 whole entry, looked up): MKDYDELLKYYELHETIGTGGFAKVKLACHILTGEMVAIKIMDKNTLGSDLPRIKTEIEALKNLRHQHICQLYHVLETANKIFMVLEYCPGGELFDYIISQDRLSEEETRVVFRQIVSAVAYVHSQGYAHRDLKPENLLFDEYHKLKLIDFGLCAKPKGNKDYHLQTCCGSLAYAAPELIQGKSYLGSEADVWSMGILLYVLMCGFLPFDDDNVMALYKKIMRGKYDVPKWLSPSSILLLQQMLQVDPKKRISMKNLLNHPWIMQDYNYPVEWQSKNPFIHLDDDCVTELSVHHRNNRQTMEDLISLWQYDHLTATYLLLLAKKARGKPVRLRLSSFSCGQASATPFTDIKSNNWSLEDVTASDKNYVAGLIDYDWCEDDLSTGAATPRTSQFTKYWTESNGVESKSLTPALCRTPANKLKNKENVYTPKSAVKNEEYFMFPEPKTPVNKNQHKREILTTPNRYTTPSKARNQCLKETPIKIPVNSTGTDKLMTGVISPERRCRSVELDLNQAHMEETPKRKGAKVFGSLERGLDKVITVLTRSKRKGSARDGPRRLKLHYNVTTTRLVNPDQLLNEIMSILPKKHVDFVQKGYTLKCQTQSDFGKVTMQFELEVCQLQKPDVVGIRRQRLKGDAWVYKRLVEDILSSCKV

[4] = molecular target: Serine/threonine-protein kinase tousled-like 2 (Homo sapiens) (UniProt Q86UE8); test: Inhibition of human recombinant TLK2 at 40 nM in presence of ATP by radiometric assay relative to control
Sequence of Serine/threonine-protein kinase tousled-like 2 (Homo sapiens) (Q86UE8 whole entry, looked up): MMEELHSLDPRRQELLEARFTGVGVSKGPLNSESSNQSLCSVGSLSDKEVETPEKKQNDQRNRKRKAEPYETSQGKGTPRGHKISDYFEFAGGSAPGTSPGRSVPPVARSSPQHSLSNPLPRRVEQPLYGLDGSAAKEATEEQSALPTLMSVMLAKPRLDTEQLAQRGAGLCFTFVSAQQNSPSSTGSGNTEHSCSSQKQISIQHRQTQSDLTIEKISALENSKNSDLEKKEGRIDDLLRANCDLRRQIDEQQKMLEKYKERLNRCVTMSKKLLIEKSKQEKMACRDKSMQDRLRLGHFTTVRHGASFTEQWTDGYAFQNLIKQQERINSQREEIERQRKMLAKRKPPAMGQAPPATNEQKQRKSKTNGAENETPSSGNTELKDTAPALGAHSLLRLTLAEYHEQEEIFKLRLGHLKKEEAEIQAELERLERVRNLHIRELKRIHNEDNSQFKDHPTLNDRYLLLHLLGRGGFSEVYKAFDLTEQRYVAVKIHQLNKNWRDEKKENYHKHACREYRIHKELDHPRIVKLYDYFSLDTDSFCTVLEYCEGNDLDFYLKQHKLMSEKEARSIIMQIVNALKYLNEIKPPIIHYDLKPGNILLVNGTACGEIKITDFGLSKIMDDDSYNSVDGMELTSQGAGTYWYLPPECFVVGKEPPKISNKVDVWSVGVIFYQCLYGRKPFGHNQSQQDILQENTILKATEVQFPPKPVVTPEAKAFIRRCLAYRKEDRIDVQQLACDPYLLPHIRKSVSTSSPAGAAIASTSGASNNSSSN

[5] = molecular target: Vascular endothelial growth factor receptor 1 (Homo sapiens) (UniProt P17948); test: Inhibition of human recombinant FLT1 at 40 nM related to control ULK1
Sequence of Vascular endothelial growth factor receptor 1 (Homo sapiens) (P17948 whole entry): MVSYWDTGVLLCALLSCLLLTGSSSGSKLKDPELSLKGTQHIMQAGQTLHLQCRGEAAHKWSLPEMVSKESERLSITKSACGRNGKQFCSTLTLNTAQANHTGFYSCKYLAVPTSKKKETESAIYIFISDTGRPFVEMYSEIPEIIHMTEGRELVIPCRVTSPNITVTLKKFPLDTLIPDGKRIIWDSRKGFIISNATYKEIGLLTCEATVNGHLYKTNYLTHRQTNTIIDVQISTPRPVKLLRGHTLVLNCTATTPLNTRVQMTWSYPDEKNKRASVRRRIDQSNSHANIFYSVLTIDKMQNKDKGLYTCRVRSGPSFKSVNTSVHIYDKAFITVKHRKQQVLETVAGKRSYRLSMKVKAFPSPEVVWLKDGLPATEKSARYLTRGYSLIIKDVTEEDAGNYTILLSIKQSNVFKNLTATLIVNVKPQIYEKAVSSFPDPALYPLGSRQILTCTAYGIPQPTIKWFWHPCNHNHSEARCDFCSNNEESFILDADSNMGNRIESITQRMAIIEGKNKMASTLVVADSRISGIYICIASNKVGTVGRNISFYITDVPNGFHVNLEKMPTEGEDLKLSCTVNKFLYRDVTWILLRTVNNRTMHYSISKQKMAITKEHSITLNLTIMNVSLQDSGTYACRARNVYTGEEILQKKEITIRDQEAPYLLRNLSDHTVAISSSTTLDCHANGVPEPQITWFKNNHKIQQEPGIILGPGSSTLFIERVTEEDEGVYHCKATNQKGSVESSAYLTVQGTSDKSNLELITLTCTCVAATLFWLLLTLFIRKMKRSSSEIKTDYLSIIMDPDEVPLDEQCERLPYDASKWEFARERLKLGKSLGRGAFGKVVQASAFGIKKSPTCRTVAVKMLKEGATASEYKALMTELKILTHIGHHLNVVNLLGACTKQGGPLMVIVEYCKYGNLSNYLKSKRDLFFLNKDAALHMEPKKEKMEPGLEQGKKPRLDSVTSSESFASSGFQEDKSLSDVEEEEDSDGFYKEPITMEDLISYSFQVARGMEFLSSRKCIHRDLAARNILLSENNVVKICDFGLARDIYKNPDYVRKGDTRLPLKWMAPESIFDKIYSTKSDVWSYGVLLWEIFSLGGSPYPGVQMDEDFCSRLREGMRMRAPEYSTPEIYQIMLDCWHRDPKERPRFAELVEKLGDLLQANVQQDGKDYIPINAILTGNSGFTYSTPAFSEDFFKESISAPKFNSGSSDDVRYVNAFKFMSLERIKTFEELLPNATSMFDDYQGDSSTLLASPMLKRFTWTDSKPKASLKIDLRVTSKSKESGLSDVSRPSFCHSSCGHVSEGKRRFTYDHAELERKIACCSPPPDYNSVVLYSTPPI

## CNC(=O)c1ccccc1Oc1nc(Nc2cc(OC)c(OC)c(OC)c2)ncc1Br
[1]
  inhibition: 0%
[2]
  inhibition: 9%

## CC(C)[C@H](NC(=O)c1cc(-c2cnn3cc(-c4ccc(OCCN5CCCCC5)cc4)cnc23)cs1)C(F)(F)F
[3]
  inhibition: 67%

## O=C(N[C@@H](C1CC1)C(F)(F)F)c1cc(-c2cnn3cc(-c4ccc(F)cc4)cnc23)cs1
[4]
  inhibition: 0%
[5]
  fold change (FC): 0.25
